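Method: 48-hour compound exposure of cells in 96-well plates, five concentrations, linear interpolation of endpoints. TGI denotes the concentration required for complete inhibition of growth.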
Legend:
Experiment in all cases: NCI anticancer screen, dose series, 48 h
[1] = tested on: KM12 colon
[2] = tested on: LOX IMVI melanoma
[3] = tested on: ACHN renal
[4] = tested on: A549 NSCLC
[5] = tested on: HCT-116 colon
[6] = tested on: EKVX NSCLC
[7] = tested on: MDA-N
[8] = tested on: SNB-19 CNS
[9] = tested on: DU-145 prostate
[10] = tested on: 786-0 renal
[11] = tested on: T-47D breast
[12] = tested on: NCI-H460 lung
[13] = tested on: SK-OV-3 ovarian
[14] = tested on: MCF7 breast
[15] = tested on: UACC-257 melanoma
[16] = tested on: A498 renal
[17] = tested on: UACC-62 melanoma
[18] = tested on: MDA-MB-231 breast
[19] = tested on: U251 CNS
[20] = tested on: UO-31 renal
[21] = tested on: SF-295 CNS
[22] = tested on: BT-549 breast
[23] = tested on: SN12C renal
[24] = tested on: SF-539 CNS
[25] = tested on: OVCAR-8 ovarian
[26] = tested on: SK-MEL-2 melanoma
[27] = tested on: NCI/ADR-RES ovarian
[28] = tested on: IGROV1 ovarian
[29] = tested on: HCT-15 colon
[30] = tested on: COLO 205 colon
[31] = tested on: M14 melanoma
[32] = tested on: RXF 393 renal
[33] = tested on: OVCAR-3 ovarian
[34] = tested on: MDA-MB-435
[35] = tested on: SF-268 CNS
[36] = tested on: CAKI-1 renal
[37] = tested on: NCI-H23 lung
[38] = tested on: MALME-3M melanoma
[39] = tested on: OVCAR-4 ovarian
[40] = tested on: TK-10 renal
[41] = tested on: HT29 colon
[42] = tested on: NCI-H522 lung
[43] = tested on: CCRF-CEM leukemia
[44] = tested on: NCI-H226 lung
[45] = tested on: HS 578T breast
[46] = tested on: OVCAR-5 ovarian
[47] = tested on: SW-620 colon
[48] = tested on: PC-3 prostate
[49] = tested on: HOP-92 NSCLC
[50] = tested on: SK-MEL-5 melanoma
[51] = tested on: K-562 leukemia
[52] = tested on: MOLT-4 leukemia
[53] = tested on: SR leukemia
[54] = tested on: RPMI-8226 leukemia
[55] = tested on: HCC-2998 colon
[56] = tested on: HOP-62 NSCLC
[57] = tested on: SNB-75 CNS
[58] = tested on: HL-60(TB) leukemia
[59] = tested on: SK-MEL-28 melanoma

Measured: TGI

CCOC(=O)Nn1c(C)nnc1-c1ccccc1
not listed: [56] | [57] | [58] | [59]
> 100 µM: all other assays above

Cc1cc(N(CCC#N)CCC#N)ccc1/C(N=Nc1ccc(Cl)cc1)=N\NC(=O)c1ccccc1
94.1 µM: [30]
76.8 µM: [34]
47.6 µM: [41]
48.1 µM: [42]
74.2 µM: [7]
58.5 µM: [16]
55 µM: [45]
50.8 µM: [24]
77.6 µM: [21]
88.3 µM: [11]
not listed: [2] | [47] | [49] | [59]
> 100 µM: all other assays above

O=c1[nH]cc(N=Cc2cc(Cl)cc(Cl)c2O)c(=O)[nH]1
47.1 µM: [33]
67.1 µM: [45]
57 µM: [56]
42.6 µM: [50]
96.1 µM: [21]
49.9 µM: [38]
98.3 µM: [48]
95.7 µM: [55]
94.9 µM: [22]
93.1 µM: [7]
46.9 µM: [58]
66.2 µM: [11]
65.3 µM: [42]
83.8 µM: [15]
75.3 µM: [37]
61.5 µM: [17]
47.8 µM: [27] | [31]
69.7 µM: [52]
53.9 µM: [13]
60.4 µM: [9]
57.1 µM: [53]
57.7 µM: [30] | [36]
47.4 µM: [35]
62.1 µM: [44]
89 µM: [49]
76.1 µM: [3]
99 µM: [43]
43.6 µM: [24]
70.6 µM: [54]
61.8 µM: [34]
50.1 µM: [28]
60.8 µM: [41]
62.2 µM: [10]
57.2 µM: [39]
43.3 µM: [5]
41.6 µM: [26]
85 µM: [1]
54.5 µM: [59]
not listed: [2] | [47] | [57]
> 100 µM: all other assays above

COc1ccc(N2C(=O)C3c4[nH]c5ccccc5c4C4CCC(C(C)(C)C)CC4C3C2=O)c(C)c1 (centres undefined)
not listed: [2] | [16] | [26] | [38] | [46] | [49]
> 100 µM: all other assays above

Source: PubChem BioAssay (NCI)
